Data reported in ChEMBL document CHEMBL3272215, “Gliotoxin analogues as inhibitors of reverse transcriptase. 2. Resolution and X-ray crystal structure determination” (J Med Chem, 1978).
Active and inactive are the calls of the source. The rule behind the calls is not given here.

System: Moloney murine leukemia virus
Assay: Inhibition of Moloney murine leukemia virus reverse transcriptase assessed as [3H]-dTMP incorporation after 30 to 120 mins

logI50 | inhibition | SMILES
0.796 | – | CN1C(=O)[C@]23SSC[C@@H]4OC(C)(C)O[C@H]4CSS[C@@]1(C)C(=O)N2c1ccccc1C3(C)C
– | Active | CN1C(=O)[C@]23SS[C@@]1(C)C(=O)N2c1ccccc1C3(C)C
0.796 | – | CN1C(=O)[C@@]23SSC[C@@H]4OC(C)(C)O[C@H]4CSS[C@]1(C)C(=O)N2c1ccccc1C3(C)C
– | Active | CN1C(=O)[C@@]23SS[C@]1(C)C(=O)N2c1ccccc1C3(C)C
